# US8314118B2, “Methods and compositions for treating dry eye” (priority 2009, dated 2012)
# What was measured:
# Type in all cases: in vivo, Sprague-Dawley rats
# DB rats [1] = assay: Schirmer test of tear production in STZ-diabetic (DB) rats after topical treatment
# Protocol: (§1) Male Sprague-Dawley rats (˜245 g) were obtained from Charles River Laboratories (Wilmington, Mass.) and housed under standard laboratory conditions. All investigations conformed to the regulations of the ARVO, National Institutes of Health, and the guidelines of the Department of Comparative Medicine of The Pennsylvania State University.
# (§2) Briefly, an intraperitoneal (i.p.) injection of 40 mg/kg streptozotocin (STZ, Sigma, St. Louis, Mo.) in ice-cold 0.5 mol/l citrate buffer (pH 4.5) was administered. […] Fifteen animals not receiving STZ, but injected with citrate buffer, were considered Normal.
# Tear secretion was measured with Schirmer strips (Alcon Laboratories, Inc., Ft. Worth Tex.). […] The strip wetting length was measured to the nearest millimeter. Five minutes prior to administration of the Schirmer strip, animals received topical Proparacaine Hydrochloride Ophthalmic Solution 0.5% (Akorn, Inc., Buffalo Grove, Ill.).
# (§3) Naltrexone hydrochloride (Sigma-Aldrich, Indianapolis, Ind.) was prepared in Vigamox (moxifloxacin hydrochloride ophthalmic solution, Alcon, Inc, Ft. Worth, Tex.) at a 10^−5 M concentration. NTX was given as a single drop (0.05 ml) to the central cornea of the right eye, with the lower eyelid held away from the eye to avoid overflow.
# (§4) Insulin or vehicle was applied topically at 0800 hours.
# (§5) For body weights and glucose measurements, Student two-tailed t-tests were utilized. With Schirmer tests and aesthesiometer measurements, one-way analysis of variance with Newman-Keuls post tests was employed because measurements were conducted on a random sample of two-thirds of the rats in each group.
# DB rats [2] = assay: Corneal sensitivity by aesthesiometer in STZ-diabetic (DB) rats after topical treatment; details: for reduction in corneal sensitivity from Normal animals: DB NTX group
# Protocol: as §1, §2
# Corneal sensitivity was determined by an aesthesiometer (Cachet and Bonnet-Aesthesiometer, Boca Raton, Fla.). The values (g/mm^2) were determined directly from the protocol (and conversion table) supplied by the manufacturer.
# Measurements of sensitivity were conducted prior to the Schirmer test.
# as §3, §4, §5
# ocular surface = assay: Slit-lamp observations of the ocular surface; details: during and after NTX administration
# Protocol: To examine general overall morphology and pathology (e.g., corneal edema, scarring), observations with a hand-held slit lamp (Zeiss HSO 10 Hand Slit Lamp, Dublin, Calif.) were conducted.
# Normal rats with Dry Eye = assay: Schirmer test of tear production in Normal rats with dry eye or "wet" eye
# Protocol: FIG. 7. Tear production of Normal rats with Dry Eye (upper panel) and “Wet” eye (lower panel). Animals were measured at baseline, and given 1 drop of topical 10^−6 M naltrexone hydrochloride (NTX). The horizontal black line represents mean baseline for comparisons. Data are expressed as mean (SEM) for 7 rats per group at each time point except 48 hr wherein n=3 rats.
# Tear secretion was measured with Schirmer strips (Alcon Laboratories, Inc., Ft. Worth Tex.). A standard 17 mm long Schirmer strip was inserted into the lower cul-de-sac for 1 min. The strip wetting length was measured to the nearest millimeter. Five minutes prior to administration of the Schirmer strip, animals received topical Proparacaine Hydrochloride Ophthalmic Solution 0.5% (Akorn, Inc., Buffalo Grove, Ill.). Testing began 1 hour after the last drop of NTX or vehicle was administered, and continued every 24 hours thereafter.
# Sprague-Dawley rats, males of 15-22 weeks of age, were tested for dry eye and therapeutic effects of opioid antagonists. […] All of these measures used a test called the Schirmer Test, as described in Example 1 (the same test used for humans).
# [3] = Normal rats with dry eye, one drop of NTX 10^−6 M
compound,measurement,setting,value
"INS: Bovine insulin (Sigma-Aldrich) prepared in Vigamox, utilized at a concentration of 1 U",decrease of Schirmer score from Normal rats,"DB rats [1]; DB INS group, at 1, 24 and 48 hour time points",35-58%
same,effect on tear production,"DB rats [1]; DB rats, 1 drop of topical INS (1 U)",no effect
same,corneal sensitivity compared with Normal animals,"DB rats [2]; DB rats, 1 drop of topical INS, 1, 24 and 48 h",did not differ from the Normal animals
"O=C1CC[C@@]2(O)[C@H]3Cc4ccc(O)c5c4[C@@]2(CCN3CC2CC2)[C@H]1O5 [NTX, 17-(cyclopropylmethyl)-4,5α-epoxy-3,14-dihydroxymorphinan-6-one]",reduction of tear production from Normal animals,"DB rats [1]; DB NTX group, 96 hours after termination of 1 or 5 days of NTX q.i.d.",22-59%
same,time to restoration of tear secretion,"DB rats [1]; DB rats, 1 drop of topical NTX 10^−5 M in Vigamox",≤ 1 h
same,time for which Schirmer scores were comparable to Normal rats,"DB rats [1]; DB rats, NTX q.i.d. for 1 or 5 days, from 1 hour after termination of drug exposure",at least 3 days
same,time for which tear production was similar to Normal animals,"DB rats [1]; DB rats, after 1 drop of NTX",at least 48 hours
same,duration of therapeutic effect,DB rats [1]; four drops (10^−6 M) over a twelve-hour period,at least 72 hours
same,duration of effect on dry eye,DB rats [1]; only one daily topical application,more than 2 days
same,reduction in corneal sensitivity from Normal animals,DB rats [2]; 120 hours after termination of 1 day of NTX q.i.d.,1.8 fold
same,reduction in corneal sensitivity from Normal animals,DB rats [2]; 192 hours after termination of 5 day NTX q.i.d.,1.9 fold
same,reduction in corneal sensitivity from Normal animals,DB rats [2]; 216 hours after termination of 5 day NTX q.i.d.,1.7 fold
same,time for which corneal sensitivity stayed comparable to Normal,"DB rats [2]; DB rats, 1 drop of NTX, entire period of the experiment",96 h
same,time to restoration of corneal sensitivity,"DB rats [2]; DB rats, 1 drop of topical NTX",≤ 1 h
same,time for which corneal sensitivity scores were comparable to Normal rats,"DB rats [2]; DB rats, NTX q.i.d. for 1 or 5 days, from 1 h after termination of drug exposure",at least 4 days
same,abnormalities of the ocular surface on slit-lamp examination,ocular surface,did not reveal any abnormalities
same,"change in moisture of animals with ""wet"" eye","Normal rats with Dry Eye; Normal rats with ""wet"" eye, one drop of NTX",no change in moisture
same,"persistence of ""wet"" eye",Normal rats with Dry Eye; [3],maintained at 24 and 48 hr
same,time of return to dry eye,Normal rats with Dry Eye; [3],≤ 72 h
same,time to reversal of dry eye,"Normal rats with Dry Eye; Normal rats with dry eye, one drop of NTX 10^−6 M in VIGAMOX",within an hour
same,duration of therapeutic effect,Normal rats with Dry Eye; one to two drops (10^−6 M),48 h
same,time to reversal of dry eye conditions,Normal rats with Dry Eye; one to two drops (10^−6 M),within an hour or so
